Source: patent US20100184094A1, “USE OF MDCK CELLS IN THE EVALUATION OF CHOLESTEROL MODULATORS” (priority 2007, published 2010)

Experiments:
dog NPC1L1 = dog NPC1L1 (Canis lupus familiaris, UniProt A0A8I3RZG1); assay: [3H]cholesterol flux into dNPC1L1/MDCKII-Flp cells; type: cell-based
Method: (§1) Flux assays were performed essentially as described by Yu et al., 2006 J Biol. Chem. 281:6616-6624. Briefly, cell growth medium was completely aspirated and replaced with 200 μl of 5% LPDS containing the appropriate concentration of compound and incubated at 37° C./3 h in a 5% CO2 incubator. Media was subsequently aspirated from cells and cells were incubated in 200 μl of 0-5.5% βmCD dissolved and filtered through a […] filter at 37° C./45 minutes in a 5% CO2 incubator. Media was dumped from cells that were then washed twice with 125 μl of 5% LPDS before media was aspirated and [3H]cholesterol complexed to BSA in 5% LPDS was added; see Yu et al., 2006 J. Biol. Chem. 281:6616-6624. After 45 minute incubation, cells were washed twice with DMEM, thoroughly aspirated and then 1% SDS was added prior to extraction for scintillation counting.
Further evidence for the role of NPC1L1 expression levels on EZE-sensitive [^3H]cholesterol influx was obtained by analyzing the properties of MDCKII-Flp cells over-expressing dog NPC1L1 (dNPC1L1/MDCKII-Flp cells) in an inducible manner.
To further characterize the [^3H] cholesterol influx process into MDCK cells, the potency of EZE-like compound PS for inhibiting [^3H] cholesterol uptake was determined. […]

MDCKII-Flp cells = assay: [3H]cholesterol flux into MDCKII-Flp cells; type: cell-based, dog; conditions: 10 μM PS, 5.5% βmCD pre-treatment
Method: as §1
To validate MDCKII cells as an appropriate surrogate system for monitoring NPC1L1-dependent processes, we evaluated their ability to perform EZE-sensitive cholesterol flux using a similar protocol to that recently reported. This assay makes use of the ability of βmCD to deplete membrane-bound cholesterol. Subsequent exposure of cells to [^3H] cholesterol provides a time-dependent flux of this substrate into the cells. […]

Sequence of dog NPC1L1 (A0A8I3RZG1 entry or part of it): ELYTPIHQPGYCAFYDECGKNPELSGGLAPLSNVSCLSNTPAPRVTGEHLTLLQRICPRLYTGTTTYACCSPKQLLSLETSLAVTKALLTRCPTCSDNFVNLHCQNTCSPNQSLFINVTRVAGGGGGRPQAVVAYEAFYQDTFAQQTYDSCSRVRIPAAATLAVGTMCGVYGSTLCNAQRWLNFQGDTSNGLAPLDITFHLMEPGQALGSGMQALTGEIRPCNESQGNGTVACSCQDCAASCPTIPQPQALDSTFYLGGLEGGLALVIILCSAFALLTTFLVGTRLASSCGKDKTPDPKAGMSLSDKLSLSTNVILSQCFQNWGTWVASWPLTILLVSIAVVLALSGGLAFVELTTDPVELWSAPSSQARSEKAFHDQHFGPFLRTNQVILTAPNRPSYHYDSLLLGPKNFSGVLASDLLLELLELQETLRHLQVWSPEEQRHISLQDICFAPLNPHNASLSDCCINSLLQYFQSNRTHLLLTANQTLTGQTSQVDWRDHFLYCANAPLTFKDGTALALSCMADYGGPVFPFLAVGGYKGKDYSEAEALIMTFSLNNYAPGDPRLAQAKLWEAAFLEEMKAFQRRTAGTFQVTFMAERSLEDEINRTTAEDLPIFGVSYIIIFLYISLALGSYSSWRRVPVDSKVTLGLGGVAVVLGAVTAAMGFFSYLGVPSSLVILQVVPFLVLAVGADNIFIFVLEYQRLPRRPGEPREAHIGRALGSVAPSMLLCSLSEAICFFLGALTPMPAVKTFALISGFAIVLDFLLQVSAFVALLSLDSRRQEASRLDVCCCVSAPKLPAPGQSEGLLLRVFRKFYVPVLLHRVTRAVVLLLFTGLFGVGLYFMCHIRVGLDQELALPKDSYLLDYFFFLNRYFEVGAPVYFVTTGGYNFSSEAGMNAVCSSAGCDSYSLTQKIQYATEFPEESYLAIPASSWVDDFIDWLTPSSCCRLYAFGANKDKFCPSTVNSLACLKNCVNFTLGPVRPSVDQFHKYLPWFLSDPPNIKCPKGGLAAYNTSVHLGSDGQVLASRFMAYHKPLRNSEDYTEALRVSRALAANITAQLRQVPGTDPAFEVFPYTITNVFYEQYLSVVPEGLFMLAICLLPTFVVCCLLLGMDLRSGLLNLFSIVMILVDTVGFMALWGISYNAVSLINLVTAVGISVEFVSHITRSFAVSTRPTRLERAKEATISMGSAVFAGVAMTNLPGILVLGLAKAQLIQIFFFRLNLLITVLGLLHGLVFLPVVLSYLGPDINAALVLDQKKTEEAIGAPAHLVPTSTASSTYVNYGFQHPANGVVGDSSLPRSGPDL

## COC(=O)[C@H]1O[C@@H](Oc2ccc([C@@H]3[C@@H](CC[C@H](O)c4ccc(F)cc4)C(=O)N3c3ccc(C#CCNS(C)(=O)=O)cc3)cc2)[C@H](O)[C@@H](O)[C@@H]1O [PS, 4-[(2S,3R)-3-[(3S)-3-(4-fluorophenyl)-3-hydroxypropyl]-1-(4-{3-[(methylsulfonyl)amino]prop-1-yn-1-yl}phenyl)-4-oxoazetidin-2-yl]phenyl methyl-β-D-glucopyranosiduronate]
Dog NPC1L1; 10 μM PS, 5.5% βmCD, after induction with 4 mM sodium butyrate
  blockade of [3H]cholesterol influx: almost completely blocked
Dog NPC1L1; dNPC1L1/MDCKII-Flp, FIG. 7C, read-out: IC50 inhibition of [3H]cholesterol uptake
  IC50: 0.32 ± 0.09 nM
MDCKII-Flp cells
  blockade of [3H]cholesterol influx: marginally blocked
